Results on eight compounds are retold here after ChEMBL document CHEMBL5257088 (J Nat Prod, 2023).

Activity calls are given as the source filed them. The calls are words filed in the database; no cut-off is given here.

Experiment [1] deals with T1, Muscarinic acetylcholine receptor M3 (Homo sapiens, UniProt P20309). The experiment is described as follows: Partial agonist activity at C-terminal NanoLuc tagged human muscarinic M3 receptor expressed in HEK293T cells using furimazine as substrate assessed as receptor activation at 100 uM preincubated with substrate for 1 min followed by compound addition and measured for 6 mins 27 sec by NanoBRET assay. Format: cell-based. The settings on record: time 387.0 sec. In general terms: BRET reads energy transfer from a luciferase to a nearby fluorophore.
Target sequence in this assay (P20309 whole entry, looked up): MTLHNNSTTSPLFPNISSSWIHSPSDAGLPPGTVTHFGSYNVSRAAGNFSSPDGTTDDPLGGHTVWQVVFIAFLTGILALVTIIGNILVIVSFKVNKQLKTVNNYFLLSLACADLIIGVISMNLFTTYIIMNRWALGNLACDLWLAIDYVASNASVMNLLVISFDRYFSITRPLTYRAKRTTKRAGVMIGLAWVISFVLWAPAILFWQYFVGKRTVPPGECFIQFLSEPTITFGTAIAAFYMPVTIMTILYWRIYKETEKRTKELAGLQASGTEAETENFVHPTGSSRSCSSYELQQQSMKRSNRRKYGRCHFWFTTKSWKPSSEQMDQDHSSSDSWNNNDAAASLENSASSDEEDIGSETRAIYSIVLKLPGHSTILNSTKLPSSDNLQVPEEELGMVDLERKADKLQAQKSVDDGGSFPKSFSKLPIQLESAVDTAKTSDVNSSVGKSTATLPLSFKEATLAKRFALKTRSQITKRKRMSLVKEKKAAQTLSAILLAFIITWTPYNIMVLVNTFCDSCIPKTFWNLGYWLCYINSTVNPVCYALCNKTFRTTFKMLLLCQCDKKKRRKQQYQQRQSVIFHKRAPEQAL

The target of experiment [2] is T2, Muscarinic acetylcholine receptor M5 (Homo sapiens) (UniProt P08912).
T2 sequence (whole entry): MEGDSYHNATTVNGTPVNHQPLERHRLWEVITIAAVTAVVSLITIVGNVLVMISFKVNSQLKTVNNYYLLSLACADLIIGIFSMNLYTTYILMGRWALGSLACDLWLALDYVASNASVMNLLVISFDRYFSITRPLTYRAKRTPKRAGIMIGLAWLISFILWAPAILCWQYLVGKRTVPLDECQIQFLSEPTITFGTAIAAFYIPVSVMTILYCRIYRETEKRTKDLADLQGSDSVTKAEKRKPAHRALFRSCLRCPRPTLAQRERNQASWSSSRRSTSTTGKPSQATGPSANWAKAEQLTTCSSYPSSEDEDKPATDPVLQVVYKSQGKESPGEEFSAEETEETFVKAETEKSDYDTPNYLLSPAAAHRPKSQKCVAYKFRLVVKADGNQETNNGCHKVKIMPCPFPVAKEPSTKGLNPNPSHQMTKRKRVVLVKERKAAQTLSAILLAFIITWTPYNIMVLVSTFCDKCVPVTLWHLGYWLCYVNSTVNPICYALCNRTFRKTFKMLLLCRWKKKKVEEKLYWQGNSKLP
The experiment is described as follows: Partial agonist activity at N-terminal FLAG tagged/C-terminal NanoLuc tagged human muscarinic M5 receptor expressed in HEK293T cells using furimazine as substrate assessed as receptor activation at 100 uM preincubated with substrate for 1 min followed by compound addition and measured for 6 mins 27 sec by NanoBRET assay. Format: cell-based. The settings on record: time 387.0 sec.

Experiment [3] addresses T3, Muscarinic acetylcholine receptor M1 (Homo sapiens, UniProt P11229).
T3 sequence (P11229 whole entry): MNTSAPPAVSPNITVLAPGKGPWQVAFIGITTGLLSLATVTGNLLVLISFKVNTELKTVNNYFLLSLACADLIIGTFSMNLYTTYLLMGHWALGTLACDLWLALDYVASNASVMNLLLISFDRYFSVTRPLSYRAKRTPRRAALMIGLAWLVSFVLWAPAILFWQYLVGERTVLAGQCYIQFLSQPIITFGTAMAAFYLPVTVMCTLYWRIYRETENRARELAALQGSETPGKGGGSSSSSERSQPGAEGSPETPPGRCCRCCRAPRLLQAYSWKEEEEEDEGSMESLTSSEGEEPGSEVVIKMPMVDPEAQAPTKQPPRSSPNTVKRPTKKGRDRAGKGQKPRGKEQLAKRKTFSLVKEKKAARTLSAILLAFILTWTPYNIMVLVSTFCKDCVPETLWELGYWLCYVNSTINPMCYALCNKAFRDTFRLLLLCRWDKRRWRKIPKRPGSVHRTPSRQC
Description: Partial agonist activity at N-terminal FLAG tagged/C-terminal NanoLuc tagged human muscarinic M1 receptor expressed in HEK293T cells using furimazine as substrate assessed as receptor activation preincubated with substrate for 1 min followed by compound addition and measured for 6 mins 27 sec by NanoBRET assay

In experiment [4] the target is T4, Muscarinic acetylcholine receptor M2 (Homo sapiens, UniProt P08172).
T4 sequence (P08172 whole entry): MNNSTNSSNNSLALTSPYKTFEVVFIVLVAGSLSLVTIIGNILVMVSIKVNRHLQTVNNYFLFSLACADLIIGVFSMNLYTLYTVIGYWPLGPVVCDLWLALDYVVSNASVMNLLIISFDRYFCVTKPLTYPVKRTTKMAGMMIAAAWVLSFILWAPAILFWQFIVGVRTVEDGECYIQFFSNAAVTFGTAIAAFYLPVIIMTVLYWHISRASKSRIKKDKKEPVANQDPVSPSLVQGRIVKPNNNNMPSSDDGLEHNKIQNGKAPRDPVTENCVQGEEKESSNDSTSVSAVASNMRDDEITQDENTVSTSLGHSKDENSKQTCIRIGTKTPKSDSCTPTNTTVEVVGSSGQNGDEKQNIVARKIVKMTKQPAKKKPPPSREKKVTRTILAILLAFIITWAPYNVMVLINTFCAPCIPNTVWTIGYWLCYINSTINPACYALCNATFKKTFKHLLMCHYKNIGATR
Description: Partial agonist activity at C-terminal NanoLuc tagged human muscarinic M2 receptor expressed in HEK293T cells using furimazine as substrate assessed as receptor activation preincubated with substrate for 1 min followed by compound addition and measured for 6 mins 27 sec by NanoBRET assay

Experiment [5] has as its target T5, Muscarinic acetylcholine receptor M4 (Homo sapiens, UniProt P08173).
T5 sequence (P08173 whole entry): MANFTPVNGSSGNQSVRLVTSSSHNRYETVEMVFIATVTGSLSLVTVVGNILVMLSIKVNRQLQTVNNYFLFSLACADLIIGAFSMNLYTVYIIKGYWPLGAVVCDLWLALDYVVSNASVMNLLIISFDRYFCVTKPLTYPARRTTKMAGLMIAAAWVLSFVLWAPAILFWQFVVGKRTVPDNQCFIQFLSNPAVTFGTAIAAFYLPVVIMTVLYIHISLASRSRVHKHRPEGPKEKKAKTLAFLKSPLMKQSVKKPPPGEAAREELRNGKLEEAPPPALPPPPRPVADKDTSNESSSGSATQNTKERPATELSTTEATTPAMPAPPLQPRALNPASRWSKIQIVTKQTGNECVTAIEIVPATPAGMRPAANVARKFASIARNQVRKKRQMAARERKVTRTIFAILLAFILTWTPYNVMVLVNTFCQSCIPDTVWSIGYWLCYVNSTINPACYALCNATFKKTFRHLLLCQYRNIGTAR
Description: Partial agonist activity at N-terminal FLAG tagged/C-terminal NanoLuc tagged human muscarinic M4 receptor expressed in HEK293T cells using furimazine as substrate assessed as receptor activation preincubated with substrate for 1 min followed by compound addition and measured for 6 mins 27 sec by NanoBRET assay

The target of experiment [6] is T6, Muscarinic acetylcholine receptor M1 (Homo sapiens) (UniProt P11229).
T6 sequence (whole entry): T3 sequence (P11229 whole entry)
Description: Partial agonist activity at N-terminal FLAG tagged/C-terminal NanoLuc tagged human muscarinic M1 receptor expressed in HEK293T cells using furimazine as substrate assessed as receptor activation at 100 uM preincubated with substrate for 1 min followed by compound addition and measured for 6 mins 27 sec by NanoBRET assay. Format: cell-based. The settings on record: time 387.0 sec.

Experiment [7] addresses T1, Muscarinic acetylcholine receptor M3.
Target sequence in this assay (P20309 whole entry): as the sequence (P20309 whole entry, looked up) above
Description: Partial agonist activity at C-terminal NanoLuc tagged human muscarinic M3 receptor expressed in HEK293T cells using furimazine as substrate assessed as receptor activation preincubated with substrate for 1 min followed by compound addition and measured for 6 mins 27 sec by NanoBRET assay
Experiment [8] addresses T7, Muscarinic acetylcholine receptor M4 (Homo sapiens) (UniProt P08173).
T7 sequence (whole entry): T5 sequence (P08173 whole entry)
The experiment is described as follows: Partial agonist activity at N-terminal FLAG tagged/C-terminal NanoLuc tagged human muscarinic M4 receptor expressed in HEK293T cells using furimazine as substrate assessed as receptor activation at 100 uM preincubated with substrate for 1 min followed by compound addition and measured for 6 mins 27 sec by NanoBRET assay. Format: cell-based. The note with it: time 387.0 sec.

In experiment [9] the target is T8, Muscarinic acetylcholine receptor M5 (Homo sapiens, UniProt P08912).
T8 sequence (P08912 whole entry): T2 sequence (whole entry)
Description: Partial agonist activity at N-terminal FLAG tagged/C-terminal NanoLuc tagged human muscarinic M5 receptor expressed in HEK293T cells using furimazine as substrate assessed as receptor activation preincubated with substrate for 1 min followed by compound addition and measured for 6 mins 27 sec by NanoBRET assay

Take `CC(C)(CN1C(=O)c2cccc3cccc(c23)C1=O)C[N+](C)(C)CCCCCC[n+]1c[nH]c(CC2COC(=O)C2)c1` (configuration not stated): the outcome in [1] and in experiment [2] was inactive. The EC50 – broadly, the midpoint of the concentration-response curve – was 0.251 µM in experiment [3], 0.251 µM in experiment [4] and 2.63 µM in experiment [5].
As for `Cn1c[n+](CCCCCC[N+](C)(C)CC(C)(C)CN2C(=O)c3cccc4cccc(c34)C2=O)cc1CC1COC(=O)C1` (configuration not stated), the result in [6], in [1] and in [2] was inactive. In addition, a half-maximal response in experiment [5] (EC50) required 36.3 µM.
With `CC[C@H]1C(=O)OC[C@@H]1Cc1c[n+](CCCCCC[N+](C)(C)CC(C)(C)CN2C(=O)c3cccc4cccc(c34)C2=O)cn1C`, the EC50 in experiment [3] was 1.74 µM; in experiment [4], 0.537 µM; in experiment [7] it was 2.82 µM.
Take `CC[C@@H]1C(=O)OC[C@@H]1Cc1c[n+](CCCCCCCC[N+](C)(C)CC(C)(C)CN2C(=O)c3cccc4cccc(c34)C2=O)cn1C`: the outcome in experiment [6], in experiment [1] and in [2] was inactive. For the same compound, the EC50 in experiment [5] is 0.0955 µM.
Consider `CC[C@H]1C(=O)OC[C@@H]1Cc1c[n+](CCCCCCCC[N+](C)(C)CC(C)(C)CN2C(=O)c3cccc4cccc(c34)C2=O)cn1C`, for which the outcome in [6], in experiment [8] and in experiment [2] was inactive. In experiment [7], the EC50 was 31.6 µM.
`CC[C@@H]1C(=O)OC[C@@H]1Cc1c[n+](CCCCCC[N+](C)(C)CC(C)(C)CN2C(=O)c3cccc4cccc(c34)C2=O)cn1C`: the EC50 in experiment [3] is 34.7 µM; in experiment [4], 1.07 µM; in experiment [7], 16.2 µM.
In the case of `Cn1cncc1C[C@H]1COC(=O)C1` [PILOSININE], the outcome in experiment [6], in experiment [1] and in [8] was inactive. In [9], the midpoint of the response, the EC50, lay at 26.3 µM.
For `O=C1C[C@@H](Cc2cnc[nH]2)CO1`, the 50% effective concentration (EC50) in [3] was 6.17 µM; in [4] it was 1.38 µM; in experiment [7] it was 20.9 µM; in experiment [5], 7.41 µM; in experiment [9], 14.8 µM.
